Reference: PMC11157767 (Molecular Cancer, 2024)
Where two headings read alike, the source gives them in different places.

Tested on: TRIM24-MET-i cells
Experimental: The number of unique and shared differentially expressed genes between each comparison are shown in parentheses. A linear regression line is depicted along with Pearson’s correlation coefficient (r) and its associated p-value. […] Common negatively enriched genesets between all three comparisons are in bold. c, Heatmaps showing expression of Hallmark_Myc_Target_v1/2 genes for indicated cells and treatment comparisons (TRIM-MET cells were treated in vitro, TFG-MET cells in vivo). Select leading edge genes from GSEA are labeled.

## CNC(=O)c1ccc(-c2cnc3ncc(Cc4ccc5ncccc5c4)n3n2)cc1F [Capmatinib]
GSEA v. DMSO
  ES GOBP_NCRNA_METABOLIC_PROCESS: -0.6039
  ES GOBP_RIBONUCLEOPROTEIN_COMPLEX_BIOGENESIS: -0.6363
  ES GOBP_RIBOSOME_BIOGENESIS: -0.7035
  ES GOBP_RRNA_METABOLIC_PROCESS: -0.6814
  ES GOCC_90S_PRERIBOSOME: -0.8257
  ES GOCC_NUCLEOLUS: -0.4698
  ES GOCC_PRERIBOSOME: -0.8127
  ES GOCC_RIBONUCLEOPROTEIN_COMPLEX: -0.4981
  ES GOCC_SMALL_SUBUNIT_PROCESSOME: -0.8233
  ES GOMF_CATALYTIC_ACTIVITY_ACTING_ON_RNA: -0.4916
  ES GOMF_HYDROLASE_ACTIVITY_ACTING_ON_ACID_ANHYDRIDES: -0.3694
  ES GOMF_MRNA_BINDING: -0.4686
  ES GOMF_RIBONUCLEOPROTEIN_COMPLEX_BINDING: -0.568
  ES GOMF_SNORNA_BINDING: -0.8035
  ES HALLMARK_ADIPOGENESIS: -0.2484
  ES HALLMARK_ALLOGRAFT_REJECTION: -0.3747
  ES HALLMARK_ANDROGEN_RESPONSE: -0.535
  ES HALLMARK_ANGIOGENESIS: -0.5762
  ES HALLMARK_APICAL_JUNCTION: -0.2832
  ES HALLMARK_APICAL_SURFACE: 0.5506
  ES HALLMARK_APOPTOSIS: -0.4219
  ES HALLMARK_BILE_ACID_METABOLISM: 0.4031
  ES HALLMARK_CHOLESTEROL_HOMEOSTASIS: -0.4011
  ES HALLMARK_COAGULATION: -0.4551
  ES HALLMARK_COMPLEMENT: -0.4981
  ES HALLMARK_DNA_REPAIR: -0.2565
  ES HALLMARK_E2F_TARGETS: -0.3059
  ES HALLMARK_EPITHELIAL_MESENCHYMAL_TRANSITION: -0.2783
  ES HALLMARK_ESTROGEN_RESPONSE_EARLY: -0.385
  ES HALLMARK_ESTROGEN_RESPONSE_LATE: -0.2661
  ES HALLMARK_FATTY_ACID_METABOLISM: 0.234
  ES HALLMARK_G2M_CHECKPOINT: -0.3396
  ES HALLMARK_GLYCOLYSIS: -0.3498
  ES HALLMARK_HEDGEHOG_SIGNALING: -0.4541
  ES HALLMARK_HEME_METABOLISM: 0.2869
  ES HALLMARK_HYPOXIA: -0.3596
  ES HALLMARK_IL2_STAT5_SIGNALING: -0.5259
  ES HALLMARK_IL6_JAK_STAT3_SIGNALING: -0.2773
  ES HALLMARK_INFLAMMATORY_RESPONSE: -0.4368
  ES HALLMARK_INTERFERON_ALPHA_RESPONSE: 0.32
  ES HALLMARK_INTERFERON_GAMMA_RESPONSE: -0.2553
  ES HALLMARK_KRAS_SIGNALING_DN: 0.2731
  ES HALLMARK_KRAS_SIGNALING_UP: -0.491
  ES HALLMARK_MITOTIC_SPINDLE: -0.3333
  ES HALLMARK_MTORC1_SIGNALING: -0.5528
  ES HALLMARK_MYC_TARGETS_V1: -0.6393
  ES HALLMARK_MYC_TARGETS_V2: -0.8185
  ES HALLMARK_MYOGENESIS: -0.217
  ES HALLMARK_NOTCH_SIGNALING: -0.4058
  ES HALLMARK_OXIDATIVE_PHOSPHORYLATION: -0.3105
  ES HALLMARK_P53_PATHWAY: -0.2547
  ES HALLMARK_PANCREAS_BETA_CELLS: 0.3447
  ES HALLMARK_PEROXISOME: 0.2566
  ES HALLMARK_PI3K_AKT_MTOR_SIGNALING: -0.3267
  ES HALLMARK_PROTEIN_SECRETION: -0.3279
  ES HALLMARK_REACTIVE_OXYGEN_SPECIES_PATHWAY: -0.337
  ES HALLMARK_SPERMATOGENESIS: 0.1852
  ES HALLMARK_TGF_BETA_SIGNALING: -0.5788
  ES HALLMARK_TNFA_SIGNALING_VIA_NFKB: -0.6019
  ES HALLMARK_UV_RESPONSE_DN: -0.3389
  ES HALLMARK_UV_RESPONSE_UP: -0.4065
  ES HALLMARK_WNT_BETA_CATENIN_SIGNALING: -0.3938
  ES HALLMARK_XENOBIOTIC_METABOLISM: 0.19
  ES KRIGE_RESPONSE_TO_TOSEDOSTAT_6HR_DN: -0.5928
  ES KRIGE_RESPONSE_TO_TOSEDOSTAT_24HR_DN: -0.6267
  ES LEE_BMP2_TARGETS_DN: -0.6601
  ES PUJANA_CHEK2_PCC_NETWORK: -0.5659
  ES WEI_MYCN_TARGETS_WITH_E_BOX: -0.6789
  NES GOBP_NCRNA_METABOLIC_PROCESS: -2.536
  NES GOBP_NCRNA_PROCESSING: -2.602
  NES GOBP_RIBONUCLEOPROTEIN_COMPLEX_BIOGENESIS: -2.684
  NES GOBP_RIBOSOME_BIOGENESIS: -2.8623
  NES GOBP_RRNA_METABOLIC_PROCESS: -2.7
  NES GOCC_90S_PRERIBOSOME: -2.336
  NES GOCC_NUCLEOLUS: -2.057
  NES GOCC_PRERIBOSOME: -2.789
  NES GOCC_RIBONUCLEOPROTEIN_COMPLEX: -2.151
  NES GOCC_SMALL_SUBUNIT_PROCESSOME: -2.456
  NES GOMF_CATALYTIC_ACTIVITY_ACTING_ON_RNA: -2.047
  NES GOMF_HYDROLASE_ACTIVITY_ACTING_ON_ACID_ANHYDRIDES: -1.614
  NES GOMF_MRNA_BINDING: -1.915
  NES GOMF_RIBONUCLEOPROTEIN_COMPLEX_BINDING: -2.117
  NES GOMF_SNORNA_BINDING: -2.308
  NES HALLMARK_ADIPOGENESIS: -0.9589
  NES HALLMARK_ALLOGRAFT_REJECTION: -1.401
  NES HALLMARK_ANDROGEN_RESPONSE: -1.889
  NES HALLMARK_APICAL_JUNCTION: -1.091
  NES HALLMARK_APICAL_SURFACE: 1.792
  NES HALLMARK_APOPTOSIS: -1.59
  NES HALLMARK_BILE_ACID_METABOLISM: 1.602
  NES HALLMARK_CHOLESTEROL_HOMEOSTASIS: -1.359
  NES HALLMARK_COAGULATION: -1.635
  NES HALLMARK_COMPLEMENT: -1.904
  NES HALLMARK_DNA_REPAIR: -0.965
  NES HALLMARK_E2F_TARGETS: -1.195
  NES HALLMARK_EPITHELIAL_MESENCHYMAL_TRANSITION: -1.076
  NES HALLMARK_ESTROGEN_RESPONSE_EARLY: -1.483
  NES HALLMARK_ESTROGEN_RESPONSE_LATE: -1.018
  NES HALLMARK_FATTY_ACID_METABOLISM: 0.99
  NES HALLMARK_G2M_CHECKPOINT: -1.318
  NES HALLMARK_GLYCOLYSIS: -1.3547
  NES HALLMARK_HEDGEHOG_SIGNALING: -1.3433
  NES HALLMARK_HEME_METABOLISM: 1.243
  NES HALLMARK_HYPOXIA: -1.387
  NES HALLMARK_IL2_STAT5_SIGNALING: -2.015
  NES HALLMARK_IL6_JAK_STAT3_SIGNALING: -0.9282
  NES HALLMARK_INFLAMMATORY_RESPONSE: -1.659
  NES HALLMARK_INTERFERON_ALPHA_RESPONSE: 1.273
  NES HALLMARK_INTERFERON_GAMMA_RESPONSE: -0.9862
  NES HALLMARK_KRAS_SIGNALING_DN: 1.126
  NES HALLMARK_KRAS_SIGNALING_UP: -1.881
  NES HALLMARK_MITOTIC_SPINDLE: -1.303
  NES HALLMARK_MTORC1_SIGNALING: -2.1602
  NES HALLMARK_MYC_TARGETS_V1: -2.499
  NES HALLMARK_MYC_TARGETS_V2: -2.697
  NES HALLMARK_MYOGENESIS: -0.8301
  NES HALLMARK_NOTCH_SIGNALING: -1.186
  NES HALLMARK_OXIDATIVE_PHOSPHORYLATION: -1.201
  NES HALLMARK_P53_PATHWAY: -0.9833
  NES HALLMARK_PANCREAS_BETA_CELLS: 1.071
  NES HALLMARK_PEROXISOME: 1.028
  NES HALLMARK_PI3K_AKT_MTOR_SIGNALING: -1.164
  NES HALLMARK_PROTEIN_SECRETION: -1.171
  NES HALLMARK_REACTIVE_OXYGEN_SPECIES_PATHWAY: -1.072
  NES HALLMARK_SPERMATOGENESIS: 0.7417
  NES HALLMARK_TGF_BETA_SIGNALING: -1.868
  NES HALLMARK_TNFA_SIGNALING_VIA_NFKB: -2.324
  NES HALLMARK_UV_RESPONSE_DN: -1.271
  NES HALLMARK_UV_RESPONSE_UP: -1.537
  NES HALLMARK_WNT_BETA_CATENIN_SIGNALING: -1.2104
  NES HALLMARK_XENOBIOTIC_METABOLISM: 0.8191
  NES KRIGE_RESPONSE_TO_TOSEDOSTAT_6HR_DN: -2.5861
  NES KRIGE_RESPONSE_TO_TOSEDOSTAT_24HR_DN: -2.743
  NES LEE_BMP2_TARGETS_DN: -2.881
  NES PUJANA_CHEK2_PCC_NETWORK: -2.452
  NES WEI_MYCN_TARGETS_WITH_E_BOX: -2.939
GSEA, v. DMSO
  ES GOBP_NCRNA_METABOLIC_PROCESS: -0.717
  ES GOBP_NCRNA_PROCESSING: -0.737
  ES GOBP_RIBONUCLEOPROTEIN_COMPLEX_BIOGENESIS: -0.7048
  ES GOBP_RIBOSOME_BIOGENESIS: -0.7793
  ES GOBP_RRNA_METABOLIC_PROCESS: -0.7679
  ES GOCC_MITOCHONDRIAL_ENVELOPE: -0.4986
  ES GOCC_NUCLEOLUS: -0.546
  ES GOCC_ORGANELLE_INNER_MEMBRANE: -0.5385
  ES GOCC_PRERIBOSOME: -0.8527
  ES GOCC_RIBONUCLEOPROTEIN_COMPLEX: -0.5996
  ES GOMF_CATALYTIC_ACTIVITY_ACTING_ON_A_TRNA: -0.6843
  ES GOMF_CATALYTIC_ACTIVITY_ACTING_ON_RNA: -0.6193
  ES GOMF_RNA_HELICASE_ACTIVITY: -0.6953
  ES GOMF_RRNA_BINDING: -0.7411
  ES GOMF_STRUCTURAL_CONSTITUENT_OF_RIBOSOME: -0.6124
  NES GOBP_NCRNA_METABOLIC_PROCESS: -2.6866
  NES GOBP_NCRNA_PROCESSING: -2.741
  NES GOBP_RIBONUCLEOPROTEIN_COMPLEX_BIOGENESIS: -2.64
  NES GOBP_RIBOSOME_BIOGENESIS: -2.85
  NES GOBP_RRNA_METABOLIC_PROCESS: -2.741
  NES GOCC_MITOCHONDRIAL_ENVELOPE: -1.908
  NES GOCC_NUCLEOLUS: -2.1002
  NES GOCC_ORGANELLE_INNER_MEMBRANE: -2.039
  NES GOCC_PRERIBOSOME: -2.662
  NES GOCC_RIBONUCLEOPROTEIN_COMPLEX: -2.294
  NES GOMF_CATALYTIC_ACTIVITY_ACTING_ON_A_TRNA: -2.236
  NES GOMF_CATALYTIC_ACTIVITY_ACTING_ON_RNA: -2.299
  NES GOMF_RNA_HELICASE_ACTIVITY: -2.194
  NES GOMF_RRNA_BINDING: -2.258
  NES GOMF_STRUCTURAL_CONSTITUENT_OF_RIBOSOME: -2.138
